Source: article PMC11350809, “Targeting N-Acetylglucosaminidase in Staphylococcus aureus with Iminosugar Inhibitors” (Antibiotics, 2024)
Where two headings read alike, the source gives them in different places.

Experiments:
[1] = biological target: human recombinant β-glucocerebrosidase (GBA); conditions: cited from earlier work
[2] = biological target: α-Glucosidase (from baker's yeast); conditions: cited from earlier work
[3] = biological target: α-Galactosidase (from green coffee beans); conditions: cited from earlier work
E. coli (ATCC 25922) = test: Minimal inhibitory concentration, broth microdilution (negative control strain); format: cell-based; conditions: Escherichia coli, ATCC25922
Description: (§1) The minimal inhibitory concentrations (MICs) were determined against the bacterial strains S. aureus (ATCC 29213) and E. coli (ATCC 25922), and the results are presented in Table S6.
(§2) Antimicrobial testing was carried out by the broth microdilution method in a 96-well plate format following the CLSI guidelines and European Committee for Antimicrobial Susceptibility Testing (EUCAST) recommendations. Bacterial suspension of a specific bacterial strain equivalent to 0.5 McFarland turbidity standard was diluted with cation-adjusted Mueller Hinton broth to obtain a final inoculum of 10^5 CFU/mL. Compounds dissolved in 20% DMSO and inoculum were mixed together and incubated for 20 h at 35 °C. After incubation, the minimal inhibitory concentration (MIC) values were determined by visual inspection as the lowest dilution of compounds showing no turbidity. The MICs were determined against S. aureus (ATCC 29213) and E. coli (ATCC 25922) bacterial strains. Tetracycline was used as a positive control on every assay plate, showing MICs of 0.5 µg/mL and 1 µg/mL for S. aureus and E. coli, respectively.

naringinase (Nar) = conditions: cited from earlier work
[4] = biological target: β-Glucosidase (from almond); conditions: cited from earlier work
[5] = biological target: β-Galactosidase (from bovine liver); conditions: cited from earlier work
S. aureus (ATCC 29213) = test: Minimal inhibitory concentration, broth microdilution; format: cell-based, Staphylococcus aureus; conditions: for MIC: Staphylococcus aureus, ATCC29213; for antibacterial activity against S. aureus ATCC 29213: in words
Description: as §1, §2

[6] = biological target: β-galactocerebrosidase (GALC); conditions: cited from earlier work
[7] = pH 5.2, footnote *, read-out: IC50 GBA pH 5.2
[8] = pH 7.0, footnote *, read-out: IC50 GBA pH 7.0
[9] = pH 7.2, p-nitrophenyl-α-D-glucopyranoside, footnote *
[10] = pH 6.8, p-nitrophenyl-α-D-galactopyranoside, footnote *
[11] = broth microdilution, 20 h at 35 °C, read-out: MIC E. coli ATCC25922
[12] = pH 5.0, p-nitrophenyl-β-D-glucopyranoside, footnote *
[13] = broth microdilution, 20 h at 35 °C, read-out: MIC S. aureus ATCC29213
[14] = pH 5.2, footnote **, read-out: IC50 GBA pH 5.2
[15] = pH 7.0, footnote **, read-out: IC50 GBA pH 7.0
[16] = pH 7.2, p-nitrophenyl-a-d-glucopyranoside, footnote **
[17] = pH 6.8, p-nitrophenyl-a-d-galactopyranoside, footnote **
[18] = pH 5.0, p-nitrophenyl-b-d-glucopyranoside, footnote **
[19] = pH 5.2, footnote ***, read-out: IC50 GBA pH 5.2
[20] = pH 7.0, footnote ***, read-out: IC50 GBA pH 7.0
[21] = pH 7.2, p-nitrophenyl-α-D-glucopyranoside, footnote ***
[22] = pH 6.8, p-nitrophenyl-α-D-galactopyranoside, footnote ***
[23] = pH 5.0, p-nitrophenyl-β-D-glucopyranoside, footnote ***

| Structure (SMILES) | IC50 [2, 9] [µM] | IC50 [3, 10] [µM] | MIC (E. coli (ATCC 25922); [11]) [µM] | IC50 (naringinase (Nar); footnote *) [µM] | IC50 [4, 12] [µM] | IC50 ([5]; footnote *) [µM] | MIC (S. aureus (ATCC 29213); [13]) [µM] | antibacterial activity against S. aureus ATCC 29213 (S. aureus (ATCC 29213)) | IC50 ([6]; footnote *) [µM] | IC50 [1, 14] [µM] | IC50 [1, 15] [µM] | IC50 [2, 16] [µM] | IC50 [3, 17] [µM] | IC50 (naringinase (Nar); footnote **) [µM] | IC50 [4, 18] [µM] | IC50 ([5]; footnote **) [µM] | IC50 ([6]; footnote **) [µM] | further results |
| --- | --- | --- | --- | --- | --- | --- | --- | --- | --- | --- | --- | --- | --- | --- | --- | --- | --- | --- |
| CCCCCCCCCCN(CCCCCCCCCC)C(=O)CN=C1OCC2C(O)C(O)C(O)CN12 (stereo not shown) [Compound 2] | > 100 | > 100 | > 500 | 0.5 ± 0.01 | > 100 | 0.9 ± 0.1 | 125 | modest antibacterial activities | > 10 |  |  |  |  |  |  |  |  | IC50 [1, 7]: 0.01 ± 0.001 µM; IC50 [1, 8]: 0.002 ± 0.001 µM |
| CCCCCCCCCCCCNC(=N)N1CC(O)C(O)C(O)C1 (stereo not shown) [Compound 4] |  |  | 500 |  |  |  | 62.5 | modest antibacterial activities |  | 0.04 ± 0.01 | 0.02 ± 0.001 | > 100 | > 100 | 37.2 ± 1.7 | 10.7 ± 0.3 | 0.7 ± 0.1 | > 10 |  |
| CCCCCCCCCCCCCCNC(=N)N1CC(O)C(O)C(O)C1 (stereo not shown) [Compound 5] |  |  | 125 |  |  |  | 15 | modest antibacterial activities |  | 0.04 ± 0.01 | 0.02 ± 0.001 | > 100 | > 100 | 33.5 ± 1.7 | 2.8 ± 0.1 | 1.6 ± 0.2 | > 10 |  |
| CCCCCCCCCCN(CCCCCCCCCC)C(=O)CNC(=N)N1CC(O)C(O)C(O)C1 (stereo not shown) [Compound 6] |  |  | 500 |  |  |  | ≤ 4 | modest antibacterial activities |  | 0.04 ± 0.01 | 0.02 ± 0.001 | > 100 | > 100 | 3.9 ± 0.6 | > 100 | 11.6 ± 4 | > 10 |  |
| CCCCCCCCNC(=O)N1CC(O)C(O)C(O)C1 (stereo not shown) [Compound 7] |  |  | > 500 |  |  |  | 125 | modest antibacterial activities |  | > 10 | > 10 | > 100 | > 100 | > 100 | > 100 | 19.6 ± 1.5 | > 10 |  |
| CCCCCCCCCCCCNC(=O)N1CC(O)C(O)C(O)C1 (stereo not shown) [Compound 9] |  |  | > 500 |  |  |  | 250 | modest antibacterial activities |  | > 10 | > 10 | > 100 | > 100 | > 100 | > 100 | 12.9 ± 1.9 | > 10 |  |
| CCCCCCCCCCCCCCNC(=O)N1CC(O)C(O)C(O)C1 (stereo not shown) [Compound 10] |  |  | > 500 |  |  |  | > 500 |  |  | > 10 | > 10 | > 100 | > 100 | > 100 | > 100 | 34.2 ± 1.9 | > 10 |  |
| CCCCOC1OCC(CNC(=N)N2CC(O)C(O)C(O)C2)O1 (stereo not shown) [Compound 11] |  |  | > 500 |  |  |  | > 500 |  |  |  |  |  |  |  |  |  |  | IC50 [1, 19]: > 30 µM; IC50 [1, 20]: 2.56 ± 0.233 µM; IC50 [2, 21]: > 30 µM; IC50 [3, 22]: > 30 µM; IC50 (naringinase (Nar); footnote ***): > 30 µM; IC50 [4, 23]: 19.2 ± 0.5 µM; IC50 ([5]; footnote ***): > 30 µM; IC50 ([6]; footnote ***): > 30 µM |
| CCCCCCCCN=C1OCC2C(O)C(O)C(O)CN12 (stereo not shown) [Compound 12] | > 100 | > 100 |  | 0.1 ± 0.01 | 5.7 ± 0.4 | 0.4 ± 0.01 |  |  | > 10 |  |  |  |  |  |  |  |  | IC50 [1, 7]: 0.1 ± 0.01 µM; IC50 [1, 8]: 0.02 ± 0.001 µM |
| CCCCCCCCCCN=C1OCC2C(O)C(O)C(O)CN12 (stereo not shown) [Compound 13] | > 100 | > 100 |  | 0.01 ± 0.01 | 2.1 ± 0.1 | 0.1 ± 0.01 |  |  | > 10 |  |  |  |  |  |  |  |  | IC50 [1, 7]: 0.02 ± 0.001 µM; IC50 [1, 8]: 0.001 ± 0.001 µM |
| CCCCCCCCCCCCN=C1OCC2C(O)C(O)C(O)CN12 (stereo not shown) [Compound 14] | > 100 | > 100 |  | 0.1 ± 0.01 | 1.6 ± 0.1 | < 0.1 |  |  | > 10 |  |  |  |  |  |  |  |  | IC50 [1, 7]: 0.01 ± 0.001 µM; IC50 [1, 8]: 0.001 ± 0.001 µM |
| CCCCCCCCNC(=N)N1CC(O)C(O)C(O)C1 (stereo not shown) [Compound 15] |  |  |  |  |  |  |  |  |  | 0.99 ± 0.09 | 0.24 ± 0.02 | > 100 | > 100 | 53 ± 2.2 | 38.1 ± 1.5 | < 0.1 | > 10 |  |
| CCCCCCCCCCN(CCCCCCCCCC)C(=O)CNC(=O)N1CC(O)C(O)C(O)C1 (stereo not shown) [Compound 16] |  |  |  |  |  |  |  |  |  | > 10 | > 10 | > 100 | > 100 | > 100 | > 100 | 12.5 ± 2.9 | > 10 |  |
| CCCCCCCCOC1OCC(CNC(=N)N2CC(O)C(O)C(O)C2)O1 (stereo not shown) [Compound 17] |  |  |  |  |  |  |  |  |  |  |  |  |  |  |  |  |  | IC50 [1, 19]: > 30 µM; IC50 [1, 20]: 0.03 ± 0.01 µM; IC50 [2, 21]: > 30 µM; IC50 [3, 22]: > 30 µM; IC50 (naringinase (Nar); footnote ***): > 30 µM; IC50 [4, 23]: 14.6 ± 0.6 µM; IC50 ([5]; footnote ***): > 30 µM; IC50 ([6]; footnote ***): > 30 µM |
| CCCCCCCCCN1C[C@H](O)[C@@H](O)[C@H](O)[C@H]1CO [NN-DNJ, reference compound] | > 100 | > 100 |  | 0.1 ± 0.01 | > 100 | > 100 |  |  | > 10 |  |  | > 100 | > 100 | 0.2 ± 0.01 | > 100 | > 100 | > 10 | IC50 [2, 21]: > 30 µM; IC50 [3, 22]: > 30 µM; IC50 (naringinase (Nar); footnote ***): 0.1 ± 0.01 µM; IC50 [4, 23]: > 30 µM; IC50 ([5]; footnote ***): > 30 µM; IC50 ([6]; footnote ***): > 30 µM |
| CN(C)[C@@H]1C(O)=C(C(N)=O)C(=O)[C@@]2(O)C(O)=C3C(=O)c4c(O)cccc4[C@@](C)(O)[C@H]3C[C@@H]12 [Tetracycline, reference compound] |  |  |  |  |  |  |  |  |  |  |  |  |  |  |  |  |  | MIC (E. coli (ATCC 25922); positive control on every assay plate, read-out: MIC E. coli): 1 µg/mL; MIC (S. aureus (ATCC 29213); positive control on every assay plate, read-out: MIC S. aureus): 0.5 µg/mL |
